Experimental data taken from PubChem BioAssay AID330 (DTP/NCI, 2004).
“And” between values parts separate entries of the source, which are not always exact repeats. Equal values may be shown once. Toxic doses and inconclusive results are not listed. How the source made its calls: active means survival T/C of 150% or more; inactive means T/C below 125% in these data.

Tested on: P388 leukemia ip, CD2F1 mice, survival T/C
Assay: NCI In Vivo Anticancer Drug Screen. Data for tumor model P388 Leukemia (intraperitoneal) in CD2F1 (CDF1) mice
Settings: endpoint: median survival time, higher = longer survival
Method in brief: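 Mice carrying the transplanted tumor received test compound or vehicle. Survival was recorded in each group, and the value is the treated-group measurement divided by that of the vehicle-treated control group.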

[1] = dose: 60.0 mg/kg/injection, schedule: Q01DX005 (ip), vehicle: Klucel (hydroxypropylcellulose) (HPC)
[2] = dose: 120.0 mg/kg/injection, schedule: Q01DX005 (ip), vehicle: Klucel (hydroxypropylcellulose) (HPC)
[3] = dose: 50.0 mg/kg/injection, schedule: Q01DX005 (ip), vehicle: Klucel (hydroxypropylcellulose) (HPC)
[4] = dose: 100.0 mg/kg/injection, schedule: Q01DX005 (ip), vehicle: Klucel (hydroxypropylcellulose) (HPC)
[5] = dose: 200.0 mg/kg/injection, schedule: Q01DX005 (ip), vehicle: Klucel (hydroxypropylcellulose) (HPC)
[6] = dose: 60.0 mg/kg/injection, schedule: Q01DX005 (ip), vehicle: saline
[7] = dose: 120.0 mg/kg/injection, schedule: Q01DX005 (ip), vehicle: saline
[8] = dose: 50.0 mg/kg/injection, schedule: Q01DX005 (ip), vehicle: saline with Tween-80
[9] = dose: 100.0 mg/kg/injection, schedule: Q01DX005 (ip), vehicle: saline with Tween-80
[10] = dose: 200.0 mg/kg/injection, schedule: Q01DX005 (ip), vehicle: saline with Tween-80
[11] = dose: 50.0 mg/kg/injection, schedule: Q01DX009 (ip), vehicle: saline with Tween-80
[12] = dose: 100.0 mg/kg/injection, schedule: Q01DX009 (ip), vehicle: saline with Tween-80
[13] = dose: 200.0 mg/kg/injection, schedule: Q01DX009 (ip), vehicle: saline with Tween-80
[14] = dose: 100.0 mg/kg/injection, schedule: Q04DX002 (ip), vehicle: Klucel (hydroxypropylcellulose) (HPC)
[15] = dose: 200.0 mg/kg/injection, schedule: Q04DX002 (ip), vehicle: Klucel (hydroxypropylcellulose) (HPC)
[16] = dose: 50.0 mg/kg/injection, schedule: Q01DX009 (ip), vehicle: saline
[17] = dose: 100.0 mg/kg/injection, schedule: Q01DX009 (ip), vehicle: saline
[18] = dose: 200.0 mg/kg/injection, schedule: Q01DX009 (ip), vehicle: saline

Measured: T/C

O=C(O)C(Cl)Cc1cnc[nH]1 (centres undefined)
inactive: dose: 100.0 mg/kg/injection, schedule: Q04DX003 (ip), vehicle: saline 103 % of control | dose: 200.0 mg/kg/injection, schedule: Q04DX003 (ip), vehicle: saline 91 % of control | dose: 400.0 mg/kg/injection, schedule: Q04DX003 (ip), vehicle: saline 91 % of control

Cn1c(=O)oc2cc(C(=O)CN3CCN(c4cccc(C(F)(F)F)c4)CC3)ccc21
inactive: [1] 92 % of control | [2] 93 % of control

S=C(Nc1ccccc1)P(c1ccccc1)c1ccccc1.[Ir]
inactive: [3] 90 % of control | [4] 99 % of control | [5] 97 % of control

[CH3][Sn]([CH3])([N]=C=S)[N]=C=S.c1ccc(-c2nnc(-c3ccccn3)nc2-c2ccccc2)cc1
inactive: [1] 100 % of control | [2] 104 % of control

O=c1ccn(C2OC(COC(c3ccccc3)(c3ccccc3)c3ccccc3)C(O)C2OC(c2ccccc2)(c2ccccc2)c2ccccc2)c(=O)[nH]1 (centres undefined)
inactive: dose: 25.0 mg/kg/injection, schedule: Q01DX005 (ip), vehicle: Klucel (hydroxypropylcellulose) (HPC) 97 % of control | [3] 99 % of control | [4] 94 % of control | [5] 93 % of control

[Cr+6].[NH-]CCC[NH-].[NH-]CCC[NH-].[NH-]CCC[NH-]
inactive: dose: 200.0 mg/kg/injection, schedule: Q01DX001 (ip), vehicle: saline 95 % of control | dose: 400.0 mg/kg/injection, schedule: Q01DX001 (ip), vehicle: saline 90 % of control

O=c1nc2n(CCO)c3ccccc3cc-2c(=O)[nH]1
inactive: [6] 96 % of control | [7] 95 % of control

CCC1C(c2c[nH]c3ccccc23)N(C=O)CCC1(O)C(C)=O (centres undefined)
inactive: dose: 4.38 mg/kg/injection, schedule: Q01DX005 (ip), vehicle: Klucel (hydroxypropylcellulose) (HPC) 99 % of control | dose: 8.75 mg/kg/injection, schedule: Q01DX005 (ip), vehicle: Klucel (hydroxypropylcellulose) (HPC) 99 % of control | dose: 17.5 mg/kg/injection, schedule: Q01DX005 (ip), vehicle: Klucel (hydroxypropylcellulose) (HPC) 96 % of control

CCCCc1c(O)c(N=NC(=N)N)c2ccccc2c1O
inactive: [8] 100 % of control | [9] 101 % of control | [10] 99 % of control

COc1cc(C(=O)c2c(OC)cccc2C(=O)O)c(OC)cc1C
inactive: dose: 25.0 mg/kg/injection, schedule: Q01DX009 (ip), vehicle: saline with Tween-80 101 % of control | [11] 105 % of control | [12] 110 % of control | [13] 99 % of control | dose: 400.0 mg/kg/injection, schedule: Q01DX009 (ip), vehicle: saline with Tween-80 99 % of control

NNC(=O)c1oc2ccccc2c1CN(CCO)CCO
inactive: [8] 102 % of control | [9] 98 % of control | [10] 107 % of control

Cc1nc(C)c2c(C)[nH]c(-c3ccccc3)c2n1
inactive: dose: 25.0 mg/kg/injection, schedule: Q04DX002 (ip), vehicle: Klucel (hydroxypropylcellulose) (HPC) 102 % of control | dose: 50.0 mg/kg/injection, schedule: Q04DX002 (ip), vehicle: Klucel (hydroxypropylcellulose) (HPC) 101 % of control | [14] 108 % of control | [15] 104 % of control

C/C(=N/NC(=O)c1ccccc1)C(=O)OC(=NC1CCCCC1)NC1CCCCC1
inactive: [14] 99 % of control | [15] 95 % of control | dose: 400.0 mg/kg/injection, schedule: Q04DX002 (ip), vehicle: Klucel (hydroxypropylcellulose) (HPC) 96 % of control

CC(=O)OCc1ccc[n+]([O-])c1
inactive: dose: 25.0 mg/kg/injection, schedule: Q01DX009 (ip), vehicle: saline 99 % of control and 96 % of control | [16] 99 % of control and 103 % of control | [17] 99 % of control and 103 % of control | [18] 99 % of control and 86 % of control | dose: 400.0 mg/kg/injection, schedule: Q01DX009 (ip), vehicle: saline 99 % of control and 109 % of control

CCOC(=O)c1c[nH]c2c(OC)ccc(OC)c2c1=O
inactive: [8] 99 % of control | [9] 100 % of control | [10] 100 % of control

CCCCCCC(=O)/C=C/c1ccc(OC)c(OC)c1OC
inactive: [11] 96 % of control | [12] 96 % of control | [13] 102 % of control

O=C/C=C/N=c1ccn(O)cc1
inactive: [6] 105 % of control | [7] 100 % of control | dose: 240.0 mg/kg/injection, schedule: Q01DX005 (ip), vehicle: saline 109 % of control

COc1ccc(/C(=N/SC)N(C)C)cc1
inactive: dose: 3.75 mg/kg/injection, schedule: Q01DX005 (ip), vehicle: saline 103 % of control | dose: 7.5 mg/kg/injection, schedule: Q01DX005 (ip), vehicle: saline 111 % of control | dose: 15.0 mg/kg/injection, schedule: Q01DX005 (ip), vehicle: saline 104 % of control

C=CC1(C)N=C1N(C)C (centres undefined)
inactive: [16] 105 % of control | [17] 97 % of control | [18] 96 % of control
